For 15 compounds, IC50 results are on record in patent US20260021085A1, “CYCLOALKYL CARBOXYLIC ACID DERIVATIVES AS INHIBITORS OF GLYCOGEN SYNTHASE 1 (GYS1) AND METHODS OF USE THEREOF” (Maze Therapeutics, Inc., priority 2022, published 2026).

One test concerns the target human GYS2 (Homo sapiens (Human), UniProt P54840). Put plainly: GYS2 coupled enzyme assay (PK/LDH). In kind it is biochemical. Particulars: recombinant hGYS2/GN1 protein; geometric mean of at least 2 assay runs. The source says: (§1) The GYS2 coupled enzyme assay is a kinetic biochemical assay that indirectly quantifies the rate of glycogen synthesis by coupling the conversion of GYS2 substrate UDP-glucose into UDP with downstream enzymatic reactions. UDP is released from UDP-glucose as glucose monomers are linked into the growing glycogen strand by GYS2. The coupled assay then proceeds with pyruvate kinase utilizing UDP and phospho (enol) pyruvate (PEP) to form pyruvate. Lactate dehydrogenase then converts pyruvate and NADH into lactate and NAD+. Oxidation of NADH to NAD+ can be measured continuously with a plate reader by quantifying the decrease in NADH absorbance at 340 nm over time.
Compounds that inhibit the hGYS2 enzyme and, subsequently, the downstream conversion of NADH to NAD+, were tested using assay ready plates (black, clear bottom 384 well plates) in a final DMSO reaction volume of 2.5% DMSO. The Assay Buffer contained 50 mM Tris pH 7.5, 2 mM MgCl2, and 100 mM KCl. Fresh stocks of BSA at a final concentration of 0.02% and TCEP 1 mM were added before splitting buffer into hGYS2 buffer and substrate buffer. To the hGYS2 buffer, rabbit liver glycogen was added at a final concentration of 0.2% glycogen. Glucose-6-Phosphate was added at 2 mM, recombinant hGYS2/GN1 protein was added at 200 nM to the substrate buffer, phosphoenolpyruvate (PEP) was added at 2 mM, UDP-Glucose was added at 2 mM, NADH was added at 0.6 mM, and Pyruvate Kinase/Lactate Dehydrogenase was added at 20 units/mL. The reaction was initiated by mixing hGYS2 buffer and substrate buffer at a 1:1 ratio. Both buffers were plated using a liquid dispensing device with hGYS2 buffer plated first followed by the substrate buffer. Plates were spun briefly to eliminate air bubbles and are immediately read in continuous mode at an absorbance of 340 nm, for 10 time points in one-minute increments, for a total of 10 minutes. The slope from these 10 time points was normalized to the positive and negative control wells.
(§2) Unless otherwise specified, IC50 values are reported as the geometric mean of at least 2 assay runs on separate days. […] Unless otherwise specified, IC50 values are reported as the geometric mean of at least two assay runs on separate days. Each run represents the average of a technical replicate, where each compound was assayed twice in the same plate.

Another test addresses human GYS1 (Homo sapiens (Human), UniProt P13807). Put plainly: GYS1 coupled enzyme assay (PK/LDH). Type of test: biochemical. The following applies: recombinant hGYS1/GN1 protein; geometric mean of at least 2 assay runs.
Description: as §1, with “GYS1” for “GYS2”, “GYS1.” for “GYS2.”
Compounds that inhibit the hGYS1 enzyme and, subsequently, the downstream conversion of NADH to NAD+, were tested using assay ready plates (black, clear bottom 384 well plates) in a final DMSO reaction volume of 2.5% DMSO. The Assay Buffer contained 50 mM Tris pH 7.5, 2 mM MgCl2, and 100 mM KCl. Fresh stocks of BSA at a final concentration of 0.02% and TCEP at 1 mM were added before splitting buffer into hGYS1 buffer and substrate buffer. To the hGYS1 buffer, rabbit liver glycogen was added at a final concentration of 0.2% glycogen. Glucose-6-Phosphate was added at 1 mM, recombinant hGYS1/GN1 protein was added at 50 nM to the substrate buffer, phosphoenolpyruvate (PEP) was added at 2 mM, UDP-Glucose was added at 0.8 mM, NADH) was added at 0.6 mM, and Pyruvate Kinase/Lactate Dehydrogenase was added at 20 units/mL. The reaction was initiated by mixing hGYS1 buffer and substrate buffer at a 1:1 ratio. Both buffers were plated using a liquid dispensing device with hGYS1 buffer plated first followed by the substrate buffer. Plates were spun briefly to eliminate air bubbles and are immediately read in continuous mode at an absorbance of 340 nm, for 10 time points in one-minute increments, for a total of 10 minutes. The slope from these 10 time points was normalized to the positive and negative control wells.
Unless otherwise specified, IC50 values are reported as the geometric mean of at least 2 assay runs on separate days. Each run represents the average of a technical replicate, where each compound was assayed twice in the same plate.

Test [1] has as its target hGYS1 enzyme, glycogen synthesis in HeLa cells (Homo sapiens (Human), UniProt P13807). Put plainly: GYS1 cell based assay (glycogen synthesis in HeLa cells, Glucose-glo). The following applies: starved HeLa cells, 24 h incubation; geometric mean of at least 2 assay runs; read-out: Cellular IC50.
Description: The GYS1 cell based assay is a bioluminescent assay that quantifies the glucose resulting from glycogen digestion; the quantified glucose is an indirect measure of GYS1 glycogen synthesis. Newly synthesized glycogen is digested using Glucoamylase; the resulting glucose is quantified by using the Glucose-glo assay kit from Promega. Glucose-glo works by coupling glucose oxidation and NADH production with a bioluminescent system that is activated with NADH. Glucose is oxidized by Glucose dehydrogenase and the reaction reduces NAD+ to NADH; NADH activates Reductase which reduces a pro-luciferin Reductase Substrate to luciferin. Luciferin is detected in a luciferase reaction using Ultra-Glo rLuciferase and ATP, and the luminesce produced is proportional to the glucose in the sample. The luminescence is measured as a single point read in a plate reader.
Compounds that inhibit the hGYS1 enzyme and, subsequently, the glycogen synthesis in cells, were tested using assay ready plates (white, clear bottom 384 well plates) in a final DMSO reaction volume of 1% DMSO. Compounds in the assay ready plates were mixed with media with no additives, except for 20 mM glucose prior to cell addition. HeLa cells were starved in media with no additives, except for 1× Glutamax for 24 h. Starved HeLa cells were plated, in a 1:1 ratio to the media in the assay ready plate and incubated for 24 h at 37° C. and 5% CO2. Cells were washed in 1×PBS buffer and lysed in lysis buffer containing 50% 1×PBS and 25% 0.3 N HCl of the final volume in the well or reaction volume; cells were incubated with lysis buffer for 10 minutes and quenched with the remaining 25% of the reaction volume that consisted of 450 mM Tris pH 8.0. Lysates were mixed in a 1:1 ratio with Glucoamylase in 100 mM Sodium Acetate buffer, pH 5.3; the mixture was incubated for 1 h at 37° C. The digested lysate was mixed in a 1:1 ratio with Glucose-glo detection mixture as per vendor recommendations (Luciferase detection buffer, Reductase, Reductase substrate, Glucose dehydrogenase, and NAD) in read-out plates (solid white 384-well plates) and incubated for 1 h at RT. The plates were read using a plate reader with luminescence capabilities. Each compound concentration Relative Luminescence Unit (RLU) was averaged and normalized to the average RLU of the positive and negative controls to obtain a percentage inhibition. The normalized data vs. concentration was plotted; to determine the half-maximal concentration (IC50), the Levenberg-Marquardt algorithm was used to fit a Hill equation to the dose response data.
as §2

Each structure is given as a SMILES string.

Sequence of hGYS1 enzyme, glycogen synthesis in HeLa cells (P13807 whole entry): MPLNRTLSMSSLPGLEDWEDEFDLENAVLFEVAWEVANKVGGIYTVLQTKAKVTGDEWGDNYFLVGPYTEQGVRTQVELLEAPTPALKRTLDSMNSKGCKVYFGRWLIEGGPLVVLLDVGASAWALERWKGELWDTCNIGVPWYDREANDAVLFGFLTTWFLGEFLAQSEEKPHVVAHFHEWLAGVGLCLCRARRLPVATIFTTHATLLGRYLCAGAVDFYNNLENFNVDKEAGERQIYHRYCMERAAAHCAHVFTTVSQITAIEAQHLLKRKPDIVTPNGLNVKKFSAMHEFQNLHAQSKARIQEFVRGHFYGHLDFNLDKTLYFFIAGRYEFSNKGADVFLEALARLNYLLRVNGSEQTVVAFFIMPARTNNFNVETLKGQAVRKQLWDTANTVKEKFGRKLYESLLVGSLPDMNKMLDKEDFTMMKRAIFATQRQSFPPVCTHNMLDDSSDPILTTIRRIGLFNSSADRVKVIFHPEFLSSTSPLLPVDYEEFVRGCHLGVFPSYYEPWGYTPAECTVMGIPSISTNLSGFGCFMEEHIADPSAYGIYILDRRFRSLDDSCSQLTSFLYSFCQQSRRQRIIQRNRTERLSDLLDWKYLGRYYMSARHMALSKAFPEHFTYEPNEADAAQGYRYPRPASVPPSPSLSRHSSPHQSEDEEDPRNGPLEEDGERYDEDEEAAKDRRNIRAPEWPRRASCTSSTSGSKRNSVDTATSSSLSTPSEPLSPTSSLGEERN
Sequence of human GYS1 (P13807 whole entry): as above
Sequence of human GYS1 (P46976 whole entry partner): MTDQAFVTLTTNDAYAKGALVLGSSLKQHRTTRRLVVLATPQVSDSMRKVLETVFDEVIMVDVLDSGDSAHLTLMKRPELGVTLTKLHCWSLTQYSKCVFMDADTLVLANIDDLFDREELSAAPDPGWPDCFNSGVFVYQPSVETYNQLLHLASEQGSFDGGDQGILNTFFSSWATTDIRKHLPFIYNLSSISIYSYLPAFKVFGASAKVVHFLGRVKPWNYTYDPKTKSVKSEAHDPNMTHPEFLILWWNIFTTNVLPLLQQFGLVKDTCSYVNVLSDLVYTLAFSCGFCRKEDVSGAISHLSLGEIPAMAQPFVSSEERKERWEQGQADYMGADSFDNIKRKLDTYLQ
Sequence of human GYS2 (P54840 whole entry): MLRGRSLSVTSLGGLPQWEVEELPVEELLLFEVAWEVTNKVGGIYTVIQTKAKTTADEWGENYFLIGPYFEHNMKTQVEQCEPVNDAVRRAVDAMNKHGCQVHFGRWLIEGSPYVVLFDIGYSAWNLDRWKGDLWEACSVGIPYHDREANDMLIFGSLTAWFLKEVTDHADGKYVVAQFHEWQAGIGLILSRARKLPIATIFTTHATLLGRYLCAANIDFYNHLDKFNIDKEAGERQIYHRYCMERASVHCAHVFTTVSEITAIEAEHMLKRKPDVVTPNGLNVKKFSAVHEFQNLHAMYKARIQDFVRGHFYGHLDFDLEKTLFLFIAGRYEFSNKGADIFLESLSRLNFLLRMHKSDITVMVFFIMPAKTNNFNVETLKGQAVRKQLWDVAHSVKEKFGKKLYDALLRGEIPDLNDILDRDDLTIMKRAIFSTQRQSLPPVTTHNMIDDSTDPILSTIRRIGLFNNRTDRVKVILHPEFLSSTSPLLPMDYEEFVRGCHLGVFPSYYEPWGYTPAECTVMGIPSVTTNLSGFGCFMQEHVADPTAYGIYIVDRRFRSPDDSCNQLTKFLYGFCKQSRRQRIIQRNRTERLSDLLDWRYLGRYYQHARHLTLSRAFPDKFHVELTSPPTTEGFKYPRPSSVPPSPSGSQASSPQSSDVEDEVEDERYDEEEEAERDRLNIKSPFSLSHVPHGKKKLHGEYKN
Sequence of human GYS2 (P46976 whole entry partner): as the sequence (P46976 whole entry partner) above

Consider `CC(C)c1ccc(C(NC(=O)C2CCCC2C(=O)O)c2cccs2)cc1` (single isomer, unassigned) [Compound 43, (1R or 1S,2S or 2R)-2-(((S or R)-(4-isopropylphenyl)(thiophen-2-yl)methyl)carbamoyl)cyclopentane-1-carboxylic acid], for which the figures for the IC50 on human GYS2 and on human GYS1 were greater than 250 µM and 19.8 µM, respectively.

With `CC(C)c1ccc(C(NC(=O)C2CCCC2C(=O)O)c2cccs2)cc1` (single isomer, unassigned) [Compound 44, (1R or 1S,2S or 2R)-2-(((R or S)-(4-isopropylphenyl)(thiophen-2-yl)methyl)carbamoyl)cyclopentane-1-carboxylic acid], the IC50 (usually the concentration needed to halve the response being measured) on human GYS2 came to 11.7 µM; on human GYS1, 12.9 µM.

For `CC(C)c1ccc(C(NC(=O)C2CCCC2C(=O)O)c2cccs2)cc1` (single isomer, unassigned) [Compound 46, (1S or 1R,2R or 2S)-2-(((S or R)-(4-isopropylphenyl)(thiophen-2-yl)methyl)carbamoyl)cyclopentane-1-carboxylic acid], the IC50 at human GYS2 is greater than 250 µM; on human GYS1, greater than 99.9 µM.

As to `CC(C)c1c(F)cc([C@@H](NC(=O)[C@@H]2CCC[C@@H]2C(=O)O)c2ccccc2)cc1F` [Compound 8, (1S,2R)-2-(((S)-(3,5-difluoro-4-isopropylphenyl)(phenyl)methyl)carbamoyl)cyclopentane-1-carboxylic acid], the IC50 is greater than 100 µM on human GYS2, 3.93 µM in test [1] and 0.239 µM on human GYS1.

In the case of `CC1(c2ccc([C@@H](NC(=O)[C@@H]3CCC[C@@H]3C(=O)O)c3ccccc3)cc2)CC1` [Compound 14, (1S,2R)-2-(((S)-(4-(1-methylcyclopropyl)phenyl)(phenyl)methyl)carbamoyl)cyclopentane-1-carboxylic acid], the IC50 in test [1] is greater than 60.8 µM; on human GYS1, 1.01 µM.

For `O=C(O)[C@H]1CCC[C@H]1C(=O)N[C@@H](c1ccccc1)c1ccc(C2CCC2)cn1` [Compound 15, (1S,2R)-2-(((S)-(5-cyclobutylpyridin-2-yl)(phenyl)methyl)carbamoyl)cyclopentane-1-carboxylic acid], the IC50 is greater than 100 µM at human GYS2, 8.49 µM in test [1] and 0.497 µM at human GYS1.

For `CC(C)c1ccc([C@@H](NC(=O)[C@@H]2CCC[C@@H]2C(=O)O)c2ccccc2NC(N)=O)cc1F` [Compound 24, (1S,2R)-2-(((R)-(3-fluoro-4-isopropylphenyl)(2-ureidophenyl)methyl)carbamoyl)cyclopentane-1-carboxylic acid], the IC50 in test [1] was determined as 92 µM; at human GYS1, 2.82 µM.

Consider `CC(C)c1ccc([C@@H](NC(=O)[C@@H]2CCC[C@@H]2C(=O)O)c2cccnc2N)cc1` [Compound 29, (1S,2R)-2-(((R)-(2-aminopyridin-3-yl)(4-isopropylphenyl)methyl)carbamoyl)cyclopentane-1-carboxylic acid], for which the values for the IC50 (in test [1]; on human GYS1) were 65.6 µM and 1.52 µM, respectively.

Regarding `CC(C)c1ccc([C@@H](NC(=O)[C@@H]2CCC[C@@H]2C(=O)O)c2cccc3c2NC(=O)C3)cc1` [Compound 30, (1S,2R)-2-(((R)-(4-isopropylphenyl)(2-oxoindolin-7-yl)methyl)carbamoyl)cyclopentane-1-carboxylic acid], the IC50 came to 31.3 µM in test [1] and 1.61 µM on human GYS1.

Regarding `CC(C)c1ccc([C@@H](NC(=O)[C@@H]2CCC[C@@H]2C(=O)O)c2ccn[nH]2)cc1` [Compound 32, (1S,2R)-2-(((R)-(4-isopropylphenyl)(1H-pyrazol-5-yl)methyl)carbamoyl)cyclopentane-1-carboxylic acid], the results for the IC50 (in test [1]; on human GYS1) were greater than 100 µM and 2.39 µM, respectively.

With `O=C(O)[C@H]1CCC[C@H]1C(=O)N[C@@H](c1ccccc1)c1ccc(C2CCC2)cc1` [Compound 34, (1S,2R)-2-(((S)-(4-cyclobutylphenyl)(phenyl)methyl)carbamoyl)cyclopentane-1-carboxylic acid], the IC50 at human GYS2 stood at 67.1 µM; on human GYS1, 0.426 µM.

With `CC(C)c1ccc([C@@H](NC(=O)[C@@H]2CCC[C@@H]2C(=O)O)c2ccccc2)nc1` [Compound 36, (1S,2R)-2-(((S)-(5-isopropylpyridin-2-yl)(phenyl)methyl)carbamoyl)cyclopentane-1-carboxylic acid], the IC50 on human GYS2 is greater than 100 µM; at human GYS1, 0.837 µM.

On to `Cc1ccccc1[C@H](NC(=O)[C@@H]1CCC[C@@H]1C(=O)O)c1ccc(C(C)C)cc1` [Compound 40, (1S,2R)-2-(((R)-(4-isopropylphenyl)(o-tolyl)methyl)carbamoyl)cyclopentane-1-carboxylic acid], for which the IC50 at human GYS2 was found to be 10.8 µM; on human GYS1 it was 0.39 µM.

On to `CC(C)c1ccc([C@@H](NC(=O)[C@@H]2CCC[C@@H]2C(=O)O)c2ccccc2)cc1` [Compound 41, (1S,2R)-2-(((S)-(4-isopropylphenyl)(phenyl)methyl)carbamoyl)cyclopentane-1-carboxylic acid], for which the IC50 on human GYS2 is greater than 87.1 µM; at human GYS1, 0.637 µM.

In the case of `CC(C)c1ccc([C@@H](NC(=O)[C@@H]2CCCC[C@@H]2C(=O)O)c2cccs2)cc1` [Compound 42, (1S,2R)-2-(((R)-(4-isopropylphenyl)(thiophen-2-yl)methyl)carbamoyl)cyclohexane-1-carboxylic acid], the half-inhibitory concentration (IC50) on human GYS2 is greater than 77.6 µM; on human GYS1 it was 0.961 µM.
